Results: patent US20070167377A1, “Inhibitors of glycinamide ribonucleotide transformylase” (priority 2002, published 2007)
Entries after “also recorded” stand apart in the source; their conditions may differ. Where two headings read alike, the source gives them in different places.

How the values were obtained:
[1] = target: T1, recombinant human GAR Tfase (rhGAR Tfase) (Homo sapiens, UniProt P22102); assay: Recombinant human GAR Tfase inhibition; type: biochemical; conditions: for potency increase of γ-pentaglutamate over monoglutamate: 21 vs 3, 22 vs 15
T1 construct: includes residues 808-1010 from the human trifunctional enzyme (purD-purM-purN); hexa-histidine (C); made in house; host or cells: E. coli BL21 (DE3) Gold, pet22b vector
T1 sequence (P22102 808-1010): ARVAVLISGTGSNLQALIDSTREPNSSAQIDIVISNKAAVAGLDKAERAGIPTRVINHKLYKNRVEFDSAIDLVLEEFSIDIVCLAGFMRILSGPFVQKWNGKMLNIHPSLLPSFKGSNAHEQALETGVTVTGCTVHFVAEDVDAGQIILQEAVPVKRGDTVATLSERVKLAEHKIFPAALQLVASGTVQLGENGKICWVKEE
Description: The gene was subcloned into the pet22b vector using the Ndel/Xhol cloning site with ahexa-histidine tag at the C-terminus. The plasmid was transformed into the E. coli expression strain BL21 (DE3) Gold. […] The purified protein was used in the inhibition assays, cytotoxic assays and crystallization experiments.
Briefly, each compound was dissolved in dimethyl sulfoxide (DMSO) and then diluted in assay buffer.

CCRF-CEM/MTX cell line = assay: Cytotoxic assay, reduced folate carrier deficient mutant; type: cell-based, human; conditions: impaired reduced folate carrier; for IC50: Homo sapiens
Description: (§1) The cytotoxic activity of the compounds was measured using CCRF-CEM human leukemia cells, as described previously (Boger, D. L., et al., Bioorg. Med. Chem. 1997, 5, 1847-1852). Two mutant cell lines, CCRF-CEM/MTX and CCRF-CEM/FPGS^− were used to determine the dependence on the reduced folate active transport system and folylpolyglutamate synthetase (FPGS), respectively (Jansen, G., et al., Cancer Res. 1989, 49, 2455-2459).

human AICAR Tfase = human AICAR Tfase (Homo sapiens, UniProt P31939); assay: AICAR Tfase inhibition; type: biochemical; conditions: for fold enhanced binding affinity / more potent than the corresponding monoglutamate: 21 vs 3, 22 vs 15, 26 vs 15
Description: (§2) GAR and AICAR Tfase inhibition studies were conducted as previously detailed^28 with the exception that the AICAR Tfase inhibition was conducted in the absence of 5 mM β-mercaptoethanol and screened with 10 nM enzyme, […] inhibitor and […] of cofactor. The DHFR inhibition study was conducted as previously detailed with 10 nM enzyme, […] H2F, […] NADPH and […] inhibitor.

[2] = system: CCRF-CEM/FPGS^− cell line; assay: Cytotoxic assay, FPGS deficient mutant; type: cell-based, human; conditions: lacks folylpolyglutamate synthase
Description: as §1

CCRF-CEM cell line = assay: CCRF-CEM cytotoxic assay; type: cell-based, human; conditions: for IC50: Homo sapiens
Description: as §1

E. coli GAR Tfase = E. coli GAR Tfase (Escherichia coli, UniProt P08179); assay: E. coli GAR Tfase inhibition; type: biochemical; conditions: for fold less potent than the corresponding monoglutamate: α-pentaglutamate vs monoglutamate (25 vs 3, 26 vs 15)
Description: as §2
The Ki values for the folate analogues were measured as previously described (Boger, D. L., et al., Bioorg. Med. Chem. 1997, 5, 1817-1830). Briefly, each compound was dissolved in dimethyl sulfoxide (DMSO) and then diluted in assay buffer. […] Thus, all assays were conducted by mixing 10 μM 10-formyl-5,8-dideazafolate (fDDF), 20 μM inhibitor in total volume of 1 mL buffer (0.1 M HEPES, pH 7.5) at 26° C., and the reaction initiated by the addition of 76 nM E. coli or human GAR Tfase. The assay monitors the deformylation of fDDF (Δε=18.9 mM^−1 cm^−1 at 295 nm) resulting from the transfer of the formyl group to β-GAR.

DHFR = DHFR (Escherichia coli, UniProt P0ABQ4); assay: DHFR inhibition (101, 102); type: biochemical; conditions: DHFR
[3] = target: thymidylate synthetase (TS) (Homo sapiens, UniProt P04818); assay: Thymidylate synthetase inhibition; type: biochemical; conditions: TS
Chemical stability = type: physicochemical
[4] = purines (hypoxanthine) absent in the media
[5] = media supplemented with a purine

SMILES	IC50 (CCRF-CEM/MTX cell line) [nM]	cytotoxic activity (in words) (CCRF-CEM/MTX cell line)	cytotoxic activity (in words) [2]	cytotoxic activity (in words) (CCRF-CEM cell line)	inhibition of / binding affinity for E. coli GAR Tfase (in words) (E. coli GAR Tfase)	IC50 (CCRF-CEM cell line; purines absent in the media) [nM]	other results
Nc1nc(N)c(CCCC(C(=O)C(F)(F)F)c2ccc(C(=O)O)cc2)c(=O)[nH]1 (centres unmarked) [Compound 111, 4-[4-(2,4-diamino-6-oxo-1,6-dihydropyrimidin-5-yl)-1-(2,2,2-trifluoro-acetyl)butyl]benzoic acid]	–	–	–	–	–	–	inhibition of GAR Tfase (in words) [1]: lack of inhibition
CN(C)N=CC(CCCc1c(N)nc(N)[nH]c1=O)c1ccc(C(=O)N[C@@H](CCC(=O)O)C(=O)O)cc1 (stereo partly drawn) [Compound 15, N{4-[5-(2,4-Diamino-6(1H)-pyrimidinon-5-yl)-1-(dimethylhydrazono)pent-2-yl]benzoyl}-L-glutamic Acid]	> 100000	lack of cytotoxic activity	inactivity; also recorded: lost cytotoxic activity	–	–	–	Ki ([1]; rhGAR Tfase, read-out: Ki): 170 nM; fold less effective than 3 (human AICAR Tfase; 15 vs 3): 30 fold
Nc1nc(N)c(CCCC(C=O)c2ccc(C(=O)N[C@@H](CCC(=O)N[C@@H](CCC(=O)N[C@@H](CCC(=O)N[C@@H](CCC(=O)N[C@@H](CCC(=O)O)C(=O)O)C(=O)O)C(=O)O)C(=O)O)C(=O)O)cc2)c(=O)[nH]1 (stereo partly drawn) [Compound 21, N-{4-[5-(2,4-Diamino-6(1H)-pyrimidinon-5-yl)-1-formyl-but-2-yl]benzoyl}-L-γ-glutamyl-L-γ-glutamyl-L-γ-glutamyl-L-γ-glutamyl-L-γ-glutamic Acid]	–	–	–	little or no cytotoxic activity	only marginal enhanced binding affinity	–	potency increase of γ-pentaglutamate over monoglutamate [1]: did not enhance; fold enhanced binding affinity / more potent than the corresponding monoglutamate (human AICAR Tfase): 4 fold
Nc1nc(N)c(CCCC(c2ccc(C(=O)N[C@@H](CCC(=O)O)C(=O)O)cc2)C(O)C(F)(F)F)c(=O)[nH]1 (stereo partly drawn) [Compound 102, N-{4-[4-(2,4-Diamino-6-oxo-1,6-dihydropyrimidin-5-yl)-1-(2,2,2-trifluoro-1-hydroxy-ethyl)butyl]benzoyl}-L-glutamic acid]	–	lost activity	lacked or lost activity	–	–	1100	times less potent than 10-CF3CO-DDACTHF ([1]; comparator 101): ca. 50 times; Ki ([1]; rhGAR Tfase, read-out: Ki): 900 nM; Ki (DHFR): > 100000 nM; Ki [3]: > 100000 nM; inhibition of AICAR Tfase (in words) (human AICAR Tfase): inactivity; Ki (human AICAR Tfase; AICAR Tfase): > 100000 nM
Nc1nc(N)c(CCCCc2ccc(C(=O)N[C@@H](CCC(=O)O)C(=O)O)cc2)c(=O)[nH]1 [DDACTHF, reference compound]	–	–	–	–	–	2700	–
Nc1nc(N)c(CCCC(C=O)c2ccc(C(=O)N[C@@H](CCC(=O)O)C(=O)O)cc2)c(=O)[nH]1 (some centres unmarked) [Compound 3]	> 100000	lack of cytotoxic activity; also recorded: lost activity	inactivity; also recorded: lost cytotoxic activity	–	–	–	IC50 (CCRF-CEM cell line; [4]): 60 nM; cytotoxic activity (in words) (CCRF-CEM cell line; [5]): no activity; Ki [1]: 14 nM; chemical stability (in words) (Chemical stability): chemical instability; also recorded: facile oxidative decarbonylation; Ki (E. coli GAR Tfase; E. coli GAR Tfase): 6000 nM
Nc1nc2c(c(=O)[nH]1)C[C@@H](CCc1ccc(C(=O)N[C@@H](CCC(=O)O)C(=O)O)cc1)CN2 [Lometrexol, (6R)-5,10-dideazatetrahydrofolate, reference compound]	–	lost activity	lacked or lost activity	–	–	150	IC50 (CCRF-CEM cell line; [4]): 230 nM; cytotoxic activity (in words) (CCRF-CEM cell line; [5]): no activity
Nc1nc(N)c(CCCC(CO)c2ccc(C(=O)N[C@@H](CCC(=O)O)C(=O)O)cc2)c(=O)[nH]1 (stereo partly drawn) [Compound 17, N-{4-[5-(2,4-Diamino-6(1H)-pyrimidinon-5-yl)-1-hydroxypent-2-yl]benzoyl}-L-glutamic Acid]	> 100000	lack of cytotoxic activity	inactivity	–	significantly less active	–	inhibition of AICAR Tfase (in words) (human AICAR Tfase): inactive
Nc1nc(N)c(CCCC(C=O)c2ccc(C(=O)N[C@@H](CCC(=O)O)C(=O)N[C@@H](CCC(=O)O)C(=O)N[C@@H](CCC(=O)O)C(=O)N[C@@H](CCC(=O)O)C(=O)N[C@@H](CCC(=O)O)C(=O)O)cc2)c(=O)[nH]1 (stereo partly drawn) [Compound 25, N{4-[5-(2,4-Diamino-6(1H)-pyrimidinon-5-yl)-1-formyl-but-2-yl]benzoyl}-L-α-glutamyl-L-α-glutamyl-L-α-glutamyl-L-α-glutamyl-L-α-glutamic Acid]	–	–	–	little or no cytotoxic activity	–	–	fold less potent than the aldehyde monoglutamate 3 (human AICAR Tfase; 25 vs 3): 16 fold; fold less potent than the corresponding monoglutamate (E. coli GAR Tfase): 3 fold
CN(C)N=CC(CCCc1c(N)nc(N)[nH]c1=O)c1ccc(C(=O)N[C@@H](CCC(=O)O)C(=O)N[C@@H](CCC(=O)O)C(=O)N[C@@H](CCC(=O)O)C(=O)N[C@@H](CCC(=O)O)C(=O)N[C@@H](CCC(=O)O)C(=O)O)cc1 (stereo partly drawn) [Compound 26, N{4-[5-(2,4-Diamino-6(1H)-pyrimidinon-5-yl)-1-(dimethylhydrazono)pent-2-yl]benzoyl}-L-α-glutamyl-L-α-glutamyl-L-α-glutamyl-L-α-glutamyl-L-α-glutamic Acid]	–	–	–	little or no cytotoxic activity	–	–	fold enhanced binding affinity / more potent than the corresponding monoglutamate (human AICAR Tfase): 4 fold; orders of magnitude less potent than the corresponding γ-pentaglutamate 22 (human AICAR Tfase; 26 vs 22): 1-2 orders of magnitude; orders of magnitude less potent than the corresponding γ-pentaglutamate 22 (E. coli GAR Tfase; 26 vs 22): 1-2 orders of magnitude; fold less potent than the corresponding monoglutamate (E. coli GAR Tfase): 4 fold
CN(C)N=CC(CCCc1c(N)nc(N)[nH]c1=O)c1ccc(C(=O)N[C@@H](CCC(=O)N[C@@H](CCC(=O)N[C@@H](CCC(=O)N[C@@H](CCC(=O)N[C@@H](CCC(=O)O)C(=O)O)C(=O)O)C(=O)O)C(=O)O)C(=O)O)cc1 (stereo partly drawn) [Compound 22, N{4-[5-(2,4-Diamino-6(1H)-pyrimidinon-5-yl)-1-(dimethylhydrazono)pent-2-yl]benzoyl}-L-γ-glutamyl-L-γ-glutamyl-L-γ-glutamyl-L-γ-glutamyl-L-γ-glutamic Acid]	–	–	–	little or no cytotoxic activity	only marginal enhanced binding affinity	–	potency increase of γ-pentaglutamate over monoglutamate [1]: 5 fold; fold enhanced binding affinity / more potent than the corresponding monoglutamate (human AICAR Tfase): 140 fold
Nc1nc(N)c(CCCC(=O)c2ccc(C(=O)N[C@@H](CCC(=O)O)C(=O)O)cc2)c(=O)[nH]1 [Compound 14, N-{4-[4-(2,4-Diamino-6(1H)-pyrimidinon-5-yl)-1-oxo-but-1-yl]benzoyl}-L-glutamic Acid]	> 100000	lack of cytotoxic activity	inactivity	–	significantly less active	< 200	inhibition of AICAR Tfase (in words) (human AICAR Tfase): inactive
